42 compounds from US9193722B2, “Tri-cyclic pyrazolopyridine kinase inhibitors” (Vertex Pharmaceuticals Incorporated, priority 2008, dated 2015) can be followed below.

SMILES strings stand for the structures. pKi: −log10 of the molar value.

What all share (assay type): biochemical
One assay has as its target PKC delta kinase (Homo sapiens, UniProt Q05655). The assay can be described thus: PKC delta kinase inhibition, coupled-enzyme (NADH absorbance) assay, Ki. The note with it: 150 μM ATP, 46 nM PKC delta kinase, 30° C.; read-out: Ki PKC delta. The method, boiled down: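 Enzyme and compound pre-equilibrated 10 min at 30° C before adding ATP to 150 μM final. Buffer: HEPES pH 7.5 (100 mM), 10 mM MgCl2, 25 mM NaCl, 0.1 mM EDTA, 0.01% Brij.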

A further assay concerns the target PKC theta kinase (Homo sapiens, UniProt Q04759). The assay can be described thus: PKC theta kinase inhibition, coupled-enzyme (NADH absorbance) assay, Ki. The note with it: 240 μM ATP, 18 nM PKC theta kinase, 30° C. In short, it runs like this: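 Enzyme and compound equilibrated 10 min at 30 °C before reaction in HEPES pH 7.5 buffer with MgCl2, NaCl, EDTA and Brij. Activity tracked as NADH loss at 340 nm through a coupled system. Initial-rate data fitted by non-linear regression to give Ki.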

A further assay concerns the target PKC alpha kinase (Homo sapiens, UniProt P17252). The assay can be described thus: PKC alpha kinase inhibition, coupled-enzyme (NADH absorbance) assay, Ki. The conditions noted are these: 130 μM ATP, 4.5 nM PKC alpha kinase, 30° C. In short, it runs like this:
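Ki derived by non-linear regression of initial rates from a coupled assay tracking NADH absorbance at 340 nm over 15 min at 30 °C. ATP was 130 μM final after a 10 min compound–enzyme preincubation in HEPES pH 7.5 buffer with MgCl2, CaCl2, NaCl, EDTA and Brij.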

Chain of PKC delta kinase (Q05655 whole entry): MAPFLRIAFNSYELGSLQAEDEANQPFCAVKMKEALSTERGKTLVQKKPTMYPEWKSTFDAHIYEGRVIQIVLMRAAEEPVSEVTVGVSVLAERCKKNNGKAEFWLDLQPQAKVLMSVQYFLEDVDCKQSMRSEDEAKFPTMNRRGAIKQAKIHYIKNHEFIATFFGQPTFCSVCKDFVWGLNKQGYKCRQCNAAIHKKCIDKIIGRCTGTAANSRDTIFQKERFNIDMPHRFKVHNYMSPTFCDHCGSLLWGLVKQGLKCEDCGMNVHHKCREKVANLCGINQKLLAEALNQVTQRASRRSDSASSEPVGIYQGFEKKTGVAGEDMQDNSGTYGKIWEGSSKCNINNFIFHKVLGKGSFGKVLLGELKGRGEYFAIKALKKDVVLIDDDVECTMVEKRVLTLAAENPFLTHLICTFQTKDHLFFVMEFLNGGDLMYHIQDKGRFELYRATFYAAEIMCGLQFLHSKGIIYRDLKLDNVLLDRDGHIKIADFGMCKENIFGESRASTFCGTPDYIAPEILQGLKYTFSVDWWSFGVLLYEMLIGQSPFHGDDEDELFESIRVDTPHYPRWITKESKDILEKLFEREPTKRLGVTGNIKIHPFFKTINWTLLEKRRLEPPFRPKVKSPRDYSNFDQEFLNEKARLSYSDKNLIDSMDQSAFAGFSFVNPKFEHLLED
Chain of PKC theta kinase (Q04759 whole entry): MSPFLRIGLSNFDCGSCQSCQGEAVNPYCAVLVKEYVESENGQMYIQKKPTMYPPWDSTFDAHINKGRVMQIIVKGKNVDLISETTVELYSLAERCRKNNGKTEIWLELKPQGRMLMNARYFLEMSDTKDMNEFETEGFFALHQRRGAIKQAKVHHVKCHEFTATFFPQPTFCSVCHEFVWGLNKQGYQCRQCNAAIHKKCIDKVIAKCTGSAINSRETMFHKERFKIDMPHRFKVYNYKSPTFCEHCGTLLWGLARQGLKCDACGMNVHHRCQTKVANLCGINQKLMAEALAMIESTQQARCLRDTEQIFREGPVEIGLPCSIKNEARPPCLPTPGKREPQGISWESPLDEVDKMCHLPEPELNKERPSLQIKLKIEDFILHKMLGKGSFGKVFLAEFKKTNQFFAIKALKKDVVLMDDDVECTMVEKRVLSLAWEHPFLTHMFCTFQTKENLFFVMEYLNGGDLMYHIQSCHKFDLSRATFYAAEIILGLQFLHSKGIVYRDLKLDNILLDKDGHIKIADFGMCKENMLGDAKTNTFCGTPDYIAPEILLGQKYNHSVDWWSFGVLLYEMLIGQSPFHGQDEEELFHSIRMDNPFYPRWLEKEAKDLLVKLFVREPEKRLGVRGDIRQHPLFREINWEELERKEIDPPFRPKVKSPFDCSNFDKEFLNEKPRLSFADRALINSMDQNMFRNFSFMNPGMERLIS

`CC(C)C[C@H]1CN(c2ccc(F)c(-c3n[nH]c4ncccc34)n2)C[C@@H](C)N1` [Compound 183]: the figures for the pKi on PKC delta kinase, on PKC theta kinase and at PKC alpha kinase were > 6.30, > 7.30 and > 5.55, respectively.
The matching figures for `COC[C@H]1CN(c2cccc(-c3n[nH]c4ncccc34)n2)CCN1` [Compound 184]: > 6.30, > 7.30 and < 5.90.
As to `OC1(C2CN(c3cccc(-c4n[nH]c5ncccc45)n3)CCN2)CC1` (stereo not drawn) [Compound 186], the figures for the pKi on PKC delta kinase, at PKC theta kinase and on PKC alpha kinase were > 7.30, > 7.30 and > 5.55, respectively.
Take `c1cc(-c2n[nH]c3ncccc23)nc(N2CCNC3(CCC3)C2)c1` [Compound 187]: the pKi on PKC delta kinase was > 7.30; at PKC theta kinase, > 7.30; on PKC alpha kinase, > 6.30.
`Fc1ccc(N2CCNC3(CCC3)C2)nc1-c1n[nH]c2ncccc12` [Compound 188]: the pKi at PKC delta kinase was > 6.30; at PKC theta kinase, > 7.30; on PKC alpha kinase, > 5.55.
For `CC(C)CC1(C)CN(c2cccc(-c3n[nH]c4ncccc34)n2)CCC1N` (stereo not drawn) [Compound 189], in that order: > 7.30, > 7.30 and > 6.30.
The matching figures for `COC(C)(C)C1CN(c2ccc(F)c(-c3n[nH]c4ncccc34)n2)CCN1` (stereo not drawn) [Compound 190]: < 5.90, > 6.30 and < 5.90.
The matching figures for `FC(F)(F)c1ccnc2[nH]nc(-c3cccc(N4CCNCC4)n3)c12` [Compound 191]: < 5.90, > 6.30 and < 5.90.
With `CC(C)C[C@@H]1CN(c2ccc(C(F)(F)F)c(-c3n[nH]c4ncccc34)n2)CCN1` [Compound 193], the pKi was < 5.90 on PKC delta kinase, > 6.30 at PKC theta kinase and < 5.90 on PKC alpha kinase.
For the compound `O=C1CN(c2ccc(C(F)(F)F)c(-c3n[nH]c4ncccc34)n2)CCN1` [Compound 194], the pKi at PKC delta kinase is < 5.90; at PKC theta kinase, < 6.15; on PKC alpha kinase it was < 5.90.
Take `CC(C)C[C@@]1(O)CN(c2ccc(C(F)(F)F)c(-c3n[nH]c4ncccc34)n2)CC[C@H]1N` [Compound 195]: the pKi on PKC delta kinase is > 6.30; at PKC theta kinase it was > 7.30; at PKC alpha kinase, > 6.30.
Consider `CC(C)CC1(O)CNCCN(c2ccc(F)c(-c3n[nH]c4ncccc34)n2)C1` (stereo not drawn) [Compound 196], for which the pKi is < 5.90 at PKC delta kinase, > 6.30 at PKC theta kinase and < 5.90 on PKC alpha kinase.
Take `CC(C)(C)C1CN(c2ccc(F)c(-c3n[nH]c4ncccc34)n2)CCN1` (stereo not drawn) [Compound 197]: the pKi on PKC delta kinase is > 6.30; at PKC theta kinase, > 7.30; on PKC alpha kinase, < 5.90.
The matching figures for `CC(C)C[C@@]1(F)CN(c2ccc(C(F)(F)F)c(-c3n[nH]c4ncccc34)n2)CC[C@H]1O` [Compound 198]: < 5.90, > 6.30 and < 5.90.
For `CC(C)C[C@@]1(F)CN(c2ccc(F)c(-c3n[nH]c4ncccc34)n2)CC[C@H]1O` [Compound 199], in that order: < 5.90, > 6.30 and < 5.90.
On to `CC(C)C[C@H]1CN(c2ccc(C(F)(F)F)c(-c3n[nH]c4ncccc34)n2)C[C@H](C)N1` [Compound 202], for which the pKi was < 5.90 at PKC delta kinase, < 6.15 at PKC theta kinase and < 5.90 on PKC alpha kinase.
`CC(C)C[C@H]1CN(c2ccc(C(F)(F)F)c(-c3n[nH]c4ncccc34)n2)C[C@@H](C)N1` [Compound 203]: the pKi at PKC delta kinase is > 6.30; on PKC theta kinase, > 7.30; at PKC alpha kinase it was > 6.30.
For the compound `Fc1ccc(N2CCNC(CC(F)(F)F)C2)nc1-c1n[nH]c2ncccc12` (stereo not drawn) [Compound 206], the values for the pKi at PKC delta kinase, at PKC theta kinase and on PKC alpha kinase were > 5.55, > 7.30 and < 5.90, respectively.
The matching figures for `CC(C)C(O)(C1CN(c2ccc(F)c(-c3n[nH]c4ncccc34)n2)CCN1)C(F)(F)F` (stereo not drawn) [Compound 207]: > 5.55, > 7.30 and < 5.90.
Regarding `NC(=O)CC1CN(c2ccc(C(F)(F)F)c(-c3n[nH]c4ncccc34)n2)CCN1` (stereo not drawn) [Compound 209], the values for the pKi on PKC delta kinase, at PKC theta kinase and at PKC alpha kinase were < 5.90, > 6.30 and < 5.90, respectively.
Regarding `CNC(=O)CC1CN(c2ccc(C(F)(F)F)c(-c3n[nH]c4ncccc34)n2)CCN1` (stereo not drawn) [Compound 210], the pKi is < 5.90 at PKC delta kinase, > 6.30 at PKC theta kinase and < 5.90 at PKC alpha kinase.
As to `CN(C)C(=O)CC1CN(c2ccc(C(F)(F)F)c(-c3n[nH]c4ncccc34)n2)CCN1` (stereo not drawn) [Compound 211], the pKi at PKC delta kinase is < 5.90; on PKC theta kinase, < 6.15; at PKC alpha kinase, < 5.90.
Take `CCNC(=O)CC1CN(c2ccc(C(F)(F)F)c(-c3n[nH]c4ncccc34)n2)CCN1` (stereo not drawn) [Compound 212]: the results for the pKi at PKC delta kinase, on PKC theta kinase and at PKC alpha kinase were < 5.90, < 6.15 and < 5.90, respectively.
Regarding `NC(=O)C1CN(c2ccc(C(F)(F)F)c(-c3n[nH]c4ncccc34)n2)CCN1` (stereo not drawn) [Compound 213], the figures for the pKi on PKC delta kinase, on PKC theta kinase and on PKC alpha kinase were < 5.90, < 6.15 and < 5.90, respectively.
Turning to `CNC(=O)C1CN(c2ccc(C(F)(F)F)c(-c3n[nH]c4ncccc34)n2)CCN1` (stereo not drawn) [Compound 214], the pKi at PKC delta kinase is < 5.90; on PKC theta kinase, < 6.15; on PKC alpha kinase, < 5.90.
For `CN(C)C(=O)C1CN(c2ccc(C(F)(F)F)c(-c3n[nH]c4ncccc34)n2)CCN1` (stereo not drawn) [Compound 215], the results for the pKi on PKC delta kinase, on PKC theta kinase and on PKC alpha kinase were < 5.90, < 6.15 and < 5.90, respectively.
`CCNC(=O)C1CN(c2ccc(C(F)(F)F)c(-c3n[nH]c4ncccc34)n2)CCN1` (stereo not drawn) [Compound 216]: the figures for the pKi on PKC delta kinase, at PKC theta kinase and at PKC alpha kinase were < 5.90, < 6.15 and < 5.90, respectively.
As for `CC(C)CC1CN(c2ccc(C(F)(F)F)c(-c3n[nH]c4ncccc34)n2)CC(CF)N1` (stereo not drawn) [Compound 217], the values for the pKi on PKC delta kinase, on PKC theta kinase and on PKC alpha kinase were < 5.90, < 6.15 and < 5.90, respectively.
As for `CC(C)C[C@]1(O)CN(c2ccc(C(F)(F)F)c(-c3n[nH]c4ncccc34)n2)CC[C@H]1N` [Compound 218], the pKi on PKC delta kinase is > 6.30; at PKC theta kinase it was > 7.30; on PKC alpha kinase it was > 6.30.
In the case of `CC(C)C[C@]1(O)CN(c2ccc(C(F)(F)F)c(-c3n[nH]c4ncccc34)n2)CC[C@@H]1N` [Compound 219], the figures for the pKi at PKC delta kinase, at PKC theta kinase and at PKC alpha kinase were > 6.30, > 6.30 and > 5.55, respectively.
`Fc1ccc(N2CCNC(C3CC3)C2)nc1-c1n[nH]c2ncccc12` (stereo not drawn) [Compound 220]: the figures for the pKi at PKC delta kinase, on PKC theta kinase and at PKC alpha kinase were > 6.30, > 7.30 and > 5.55, respectively.
In the case of `COC(C)C1CN(c2ccc(C(F)(F)F)c(-c3n[nH]c4ncccc34)n2)CCN1` (stereo not drawn) [Compound 221], the pKi was < 5.90 on PKC delta kinase, > 6.30 at PKC theta kinase and < 5.90 on PKC alpha kinase.
Consider `CC(C)C[C@H]1CN(c2ccc(C(F)(F)F)c(-c3n[nH]c4ncccc34)n2)CC(F)(F)CN1` [Compound 222], for which the values for the pKi at PKC delta kinase, on PKC theta kinase and at PKC alpha kinase were < 5.90, < 6.15 and < 5.90, respectively.
Regarding `CCC[C@H]1CN(c2ccc(C(F)(F)F)c(-c3n[nH]c4ncccc34)n2)CC(F)(F)CN1` [Compound 223], the pKi on PKC delta kinase was < 5.90; on PKC theta kinase it was < 6.15; on PKC alpha kinase it was < 5.90.
`CC(C)C[C@H]1CN(c2ccc(C(F)(F)F)c(-c3n[nH]c4ncccc34)n2)CCCN1` [Compound 224]: the pKi at PKC delta kinase was < 5.90; on PKC theta kinase, > 6.30; at PKC alpha kinase, < 5.90.
Turning to `CC(C)C[C@H]1CN(c2cccc(-c3n[nH]c4ncccc34)n2)CC(F)(F)CN1` [Compound 225], the pKi on PKC delta kinase was < 5.90; at PKC theta kinase it was > 6.30; on PKC alpha kinase, < 5.90.
`CN1CCN(c2ccc(F)c(-c3n[nH]c4ncccc34)n2)CC1` [Compound 226, 3-(3-fluoro-6-(4-methylpiperazin-1-yl)pyridin-2-yl)-1H-pyrazolo[3,4-b]pyridine]: the pKi at PKC delta kinase is < 5.90; at PKC theta kinase, > 6.30; at PKC alpha kinase, < 5.90.
Regarding `CCC[C@H]1CN(c2cccc(-c3n[nH]c4ncccc34)n2)CC(F)(F)CN1` [Compound 227], the pKi was < 5.90 on PKC delta kinase, > 6.30 at PKC theta kinase and < 5.90 on PKC alpha kinase.
Turning to `CCC[C@H]1CN(c2cccc(-c3n[nH]c4ncccc34)n2)CCCN1` [Compound 228], the pKi on PKC delta kinase is > 6.30; at PKC theta kinase it was > 7.30; at PKC alpha kinase, > 6.30.
As to `OC1(C2CN(c3ccc(F)c(-c4n[nH]c5ncccc45)n3)CCN2)COC1` (stereo not drawn) [Compound 230], the pKi on PKC delta kinase is < 5.90; on PKC theta kinase it was > 7.30; on PKC alpha kinase, < 5.90.
Regarding `OC1(C2CN(c3cccc(-c4n[nH]c5ncccc45)n3)CCN2)COC1` (stereo not drawn) [Compound 232], the pKi on PKC delta kinase is < 5.90; on PKC theta kinase it was < 6.15; at PKC alpha kinase, < 5.90.
Turning to `OC1(C2CN(c3ccc(C(F)(F)F)c(-c4n[nH]c5ncccc45)n3)CCN2)COC1` (stereo not drawn) [Compound 233], the results for the pKi at PKC delta kinase, on PKC theta kinase and on PKC alpha kinase were < 5.90, < 6.15 and < 5.90, respectively.
